# ChEMBL document CHEMBL5696442, “Discovery of type II inhibitors of TGFβ-activated kinase 1 (TAK1) and mitogen-activated protein kinase kinase kinase kinase 2 (MAP4K2)” (J Med Chem, 2015)
# Active and inactive are the calls of the source. The calls are words filed in the database; no cut-off is given here.
# Tests used:
# [1] = target: Mitogen-activated protein kinase 11 (Homo sapiens) (UniProt Q15759); experiment: Inhibition of p38 beta (unknown origin) at 1 uM by Ambit Kinomescan binding assay relative to control; values are per cent of control
# [2] = target: Phosphatidylinositol 4,5-bisphosphate 3-kinase catalytic subunit alpha isoform (Homo sapiens) (UniProt P42336); experiment: Inhibition of PIK3CA ATP labeling site in human A-375 cells at 0.05 uM by KiNativ Profiling analysis relative to control; format: cell-based
# [3] = target: Tyrosine-protein kinase FRK (Homo sapiens) (UniProt P42685); experiment: Inhibition of FRK (unknown origin) at 1 uM by Ambit Kinomescan binding assay relative to control; values are per cent of control
# [4] = target: Serine/threonine-protein kinase RIO2 (Homo sapiens) (UniProt Q9BVS4); experiment: Inhibition of RIOK2 (unknown origin) at 1 uM by Ambit Kinomescan binding assay relative to control
# [5] = target: Tyrosine-protein kinase ITK/TSK (Homo sapiens) (UniProt Q08881); experiment: Inhibition of ITK (unknown origin) at 10 uM by Ambit Kinomescan binding assay
# [6] = target: T1, Serine/threonine-protein kinase Sgk3 (Homo sapiens) (UniProt Q96BR1); experiment: Inhibition of SGK3 Lys1 labeling site in human A-375 cells at 0.05 uM by KiNativ Profiling analysis relative to control; format: cell-based
# T1 sequence (whole entry): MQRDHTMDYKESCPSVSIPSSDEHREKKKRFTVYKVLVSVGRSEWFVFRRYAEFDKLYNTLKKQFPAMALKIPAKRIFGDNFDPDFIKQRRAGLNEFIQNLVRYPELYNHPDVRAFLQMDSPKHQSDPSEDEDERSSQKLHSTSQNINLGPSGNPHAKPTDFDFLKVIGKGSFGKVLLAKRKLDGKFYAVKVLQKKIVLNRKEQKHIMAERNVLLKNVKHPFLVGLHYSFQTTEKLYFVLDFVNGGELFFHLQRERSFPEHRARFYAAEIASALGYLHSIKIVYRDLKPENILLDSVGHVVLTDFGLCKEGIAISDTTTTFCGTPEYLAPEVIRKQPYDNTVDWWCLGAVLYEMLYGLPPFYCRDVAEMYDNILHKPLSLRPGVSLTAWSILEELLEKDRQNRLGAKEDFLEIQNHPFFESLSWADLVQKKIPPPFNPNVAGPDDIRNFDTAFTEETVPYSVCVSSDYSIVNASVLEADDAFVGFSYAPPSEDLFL
# [7] = target: Bone morphogenetic protein receptor type-1B (Homo sapiens) (UniProt O00238); experiment: Inhibition of BMPR1B (unknown origin) at 10 uM by Ambit Kinomescan binding assay
# [8] = target: Serine/threonine-protein kinase WNK4 (Homo sapiens) (UniProt Q96J92); experiment: Inhibition of Wnk4 K2 labeling site in human Huh-7 cells at 10 uM by KiNativ Profiling analysis relative to control; format: cell-based
# [9] = target: Cyclin-dependent kinase 18 (Homo sapiens) (UniProt Q07002); experiment: Inhibition of PCTK3 (unknown origin) at 10 uM by Ambit Kinomescan binding assay relative to control
# [10] = target: Death-associated protein kinase 3 (Homo sapiens) (UniProt O43293); experiment: Inhibition of DAPK3 (unknown origin) at 10 uM by Ambit Kinomescan binding assay
# [11] = target: Calcium/calmodulin-dependent protein kinase type II subunit delta (Homo sapiens) (UniProt Q13557); experiment: Inhibition of CaMK2d Lys1 labeling site in human A-375 cells at 5 uM by KiNativ Profiling analysis relative to control; format: cell-based
# [12] = target: Tyrosine-protein kinase Yes (Homo sapiens) (UniProt P07947); experiment: Inhibition of YES ACT labeling site in human Huh-7 cells at 10 uM by KiNativ Profiling analysis relative to control; format: cell-based
# [13] = Inhibition of KHS1 Lys2 labeling site in human A-375 cells at 5 uM by KiNativ Profiling analysis relative to control; settings: condition cancer
# [14] = target: Serine/threonine-protein kinase Nek3 (Homo sapiens) (UniProt P51956); experiment: Inhibition of NEK3 ACT labeling site in human Huh-7 cell lysate at 1 uM by KiNativ Profiling analysis relative to control; format: subcellular
# [15] = target: Serine/threonine-protein kinase N2 (Homo sapiens) (UniProt Q16513); experiment: Inhibition of PKN2 Lys2 labeling site in human Huh-7 cell lysate at 1 uM by KiNativ Profiling analysis relative to control; format: subcellular
# [16] = target: T2, Phosphatidylinositol 5-phosphate 4-kinase type-2 gamma (Homo sapiens) (UniProt Q8TBX8); experiment: Inhibition of PIP4K2C ATP labeling site harbouring TLVIKEVSSEDIADMHSNLSNYHQYIVK in human Huh-7 cells at 1 uM by KiNativ Profiling analysis relative to control; format: cell-based
# T2 sequence (whole entry): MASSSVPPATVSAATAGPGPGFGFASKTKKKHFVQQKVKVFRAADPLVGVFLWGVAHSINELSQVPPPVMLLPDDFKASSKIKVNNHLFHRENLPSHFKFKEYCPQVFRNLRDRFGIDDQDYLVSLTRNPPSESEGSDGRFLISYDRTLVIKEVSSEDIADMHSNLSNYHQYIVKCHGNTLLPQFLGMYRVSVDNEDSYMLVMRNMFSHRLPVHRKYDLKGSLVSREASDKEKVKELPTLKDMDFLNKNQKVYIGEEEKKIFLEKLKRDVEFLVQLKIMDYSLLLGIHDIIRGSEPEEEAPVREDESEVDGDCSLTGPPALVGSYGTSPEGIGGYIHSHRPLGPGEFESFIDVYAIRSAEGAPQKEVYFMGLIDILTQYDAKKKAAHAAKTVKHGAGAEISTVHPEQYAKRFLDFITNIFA
# [17] = target: Mitogen-activated protein kinase 10 (Homo sapiens, UniProt P53779); experiment: Inhibition of JNK3 Lys2 labeling site in human Huh-7 cells at 1 uM by KiNativ Profiling analysis relative to control; format: cell-based
# [18] = target: T3, Phosphatidylinositol 5-phosphate 4-kinase type-2 alpha (Homo sapiens) (UniProt P48426); experiment: Inhibition of PIP4K2A ATP labeling site harbouring AKELPTLKDNDFINEGQK in human Huh-7 cells at 1 uM by KiNativ Profiling analysis relative to control; format: cell-based
# T3 sequence (whole entry): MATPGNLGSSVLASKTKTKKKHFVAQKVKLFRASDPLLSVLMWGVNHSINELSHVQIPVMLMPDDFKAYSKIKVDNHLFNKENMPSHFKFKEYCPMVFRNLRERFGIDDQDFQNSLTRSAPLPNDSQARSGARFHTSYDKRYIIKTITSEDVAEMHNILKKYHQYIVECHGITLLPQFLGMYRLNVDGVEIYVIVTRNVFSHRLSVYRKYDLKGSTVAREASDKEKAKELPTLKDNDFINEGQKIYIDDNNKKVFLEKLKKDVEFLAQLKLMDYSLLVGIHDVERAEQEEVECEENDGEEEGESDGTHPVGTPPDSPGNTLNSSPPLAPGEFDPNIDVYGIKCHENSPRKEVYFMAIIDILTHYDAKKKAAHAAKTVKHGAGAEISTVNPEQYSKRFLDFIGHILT
# Chain of Tyrosine-protein kinase FRK (Homo sapiens) (P42685 whole entry): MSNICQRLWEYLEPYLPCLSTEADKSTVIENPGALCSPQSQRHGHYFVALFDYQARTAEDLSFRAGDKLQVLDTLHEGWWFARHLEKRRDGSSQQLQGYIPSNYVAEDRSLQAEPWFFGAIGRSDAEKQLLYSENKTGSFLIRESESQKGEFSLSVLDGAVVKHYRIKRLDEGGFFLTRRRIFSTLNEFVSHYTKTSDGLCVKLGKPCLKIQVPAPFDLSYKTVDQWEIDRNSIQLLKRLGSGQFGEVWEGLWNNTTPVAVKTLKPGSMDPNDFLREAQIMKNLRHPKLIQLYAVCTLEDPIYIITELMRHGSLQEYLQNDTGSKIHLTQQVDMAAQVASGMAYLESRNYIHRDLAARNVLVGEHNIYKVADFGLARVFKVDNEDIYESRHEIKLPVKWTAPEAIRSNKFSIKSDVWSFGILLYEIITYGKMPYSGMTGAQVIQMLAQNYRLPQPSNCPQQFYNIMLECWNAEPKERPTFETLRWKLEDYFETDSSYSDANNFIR
# Chain of Bone morphogenetic protein receptor type-1B (Homo sapiens) (O00238 whole entry): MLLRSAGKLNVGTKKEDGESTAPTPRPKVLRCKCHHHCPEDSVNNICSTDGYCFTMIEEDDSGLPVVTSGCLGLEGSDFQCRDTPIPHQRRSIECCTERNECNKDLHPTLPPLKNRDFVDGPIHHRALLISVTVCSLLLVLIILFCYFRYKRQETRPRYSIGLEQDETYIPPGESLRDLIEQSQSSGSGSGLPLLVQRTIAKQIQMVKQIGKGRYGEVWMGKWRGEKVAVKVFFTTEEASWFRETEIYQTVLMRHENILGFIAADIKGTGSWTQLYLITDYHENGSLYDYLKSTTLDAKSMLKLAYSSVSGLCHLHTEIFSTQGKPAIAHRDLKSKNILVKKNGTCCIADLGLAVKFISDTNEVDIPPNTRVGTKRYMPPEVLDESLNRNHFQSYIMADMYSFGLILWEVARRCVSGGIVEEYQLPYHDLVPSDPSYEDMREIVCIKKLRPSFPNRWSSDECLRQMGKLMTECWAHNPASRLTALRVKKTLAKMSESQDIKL
# Chain of Phosphatidylinositol 4,5-bisphosphate 3-kinase catalytic subunit alpha isoform (Homo sapiens) (P42336 whole entry, canonical isoform): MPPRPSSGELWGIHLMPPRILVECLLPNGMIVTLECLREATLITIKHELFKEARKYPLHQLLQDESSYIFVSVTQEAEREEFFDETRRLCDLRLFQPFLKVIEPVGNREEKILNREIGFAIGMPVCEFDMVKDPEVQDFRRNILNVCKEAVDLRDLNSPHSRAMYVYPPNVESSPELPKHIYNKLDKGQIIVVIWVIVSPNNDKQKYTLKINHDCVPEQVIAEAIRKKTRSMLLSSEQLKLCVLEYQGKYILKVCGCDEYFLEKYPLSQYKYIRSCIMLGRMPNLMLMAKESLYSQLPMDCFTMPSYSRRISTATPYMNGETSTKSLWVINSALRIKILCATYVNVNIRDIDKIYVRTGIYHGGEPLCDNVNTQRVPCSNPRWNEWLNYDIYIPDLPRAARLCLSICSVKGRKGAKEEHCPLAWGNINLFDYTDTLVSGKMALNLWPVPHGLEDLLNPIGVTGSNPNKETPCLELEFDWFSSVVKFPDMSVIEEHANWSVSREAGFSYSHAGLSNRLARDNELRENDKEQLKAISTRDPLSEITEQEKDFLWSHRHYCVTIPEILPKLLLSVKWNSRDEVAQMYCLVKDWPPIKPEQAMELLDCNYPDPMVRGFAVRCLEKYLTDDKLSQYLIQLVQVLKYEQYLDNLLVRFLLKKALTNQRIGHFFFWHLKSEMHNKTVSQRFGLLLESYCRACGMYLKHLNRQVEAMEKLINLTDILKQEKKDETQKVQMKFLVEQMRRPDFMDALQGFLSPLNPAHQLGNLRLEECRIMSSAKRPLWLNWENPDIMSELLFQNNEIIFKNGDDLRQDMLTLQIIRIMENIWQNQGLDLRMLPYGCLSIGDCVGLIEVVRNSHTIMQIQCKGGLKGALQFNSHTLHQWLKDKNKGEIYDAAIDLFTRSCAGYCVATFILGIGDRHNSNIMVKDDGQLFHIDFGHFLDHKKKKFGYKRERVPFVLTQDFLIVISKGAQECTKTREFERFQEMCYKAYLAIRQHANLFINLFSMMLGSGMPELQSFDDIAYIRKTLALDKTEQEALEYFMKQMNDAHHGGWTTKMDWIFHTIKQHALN
# Chain of Serine/threonine-protein kinase N2 (Homo sapiens) (Q16513 whole entry, looked up): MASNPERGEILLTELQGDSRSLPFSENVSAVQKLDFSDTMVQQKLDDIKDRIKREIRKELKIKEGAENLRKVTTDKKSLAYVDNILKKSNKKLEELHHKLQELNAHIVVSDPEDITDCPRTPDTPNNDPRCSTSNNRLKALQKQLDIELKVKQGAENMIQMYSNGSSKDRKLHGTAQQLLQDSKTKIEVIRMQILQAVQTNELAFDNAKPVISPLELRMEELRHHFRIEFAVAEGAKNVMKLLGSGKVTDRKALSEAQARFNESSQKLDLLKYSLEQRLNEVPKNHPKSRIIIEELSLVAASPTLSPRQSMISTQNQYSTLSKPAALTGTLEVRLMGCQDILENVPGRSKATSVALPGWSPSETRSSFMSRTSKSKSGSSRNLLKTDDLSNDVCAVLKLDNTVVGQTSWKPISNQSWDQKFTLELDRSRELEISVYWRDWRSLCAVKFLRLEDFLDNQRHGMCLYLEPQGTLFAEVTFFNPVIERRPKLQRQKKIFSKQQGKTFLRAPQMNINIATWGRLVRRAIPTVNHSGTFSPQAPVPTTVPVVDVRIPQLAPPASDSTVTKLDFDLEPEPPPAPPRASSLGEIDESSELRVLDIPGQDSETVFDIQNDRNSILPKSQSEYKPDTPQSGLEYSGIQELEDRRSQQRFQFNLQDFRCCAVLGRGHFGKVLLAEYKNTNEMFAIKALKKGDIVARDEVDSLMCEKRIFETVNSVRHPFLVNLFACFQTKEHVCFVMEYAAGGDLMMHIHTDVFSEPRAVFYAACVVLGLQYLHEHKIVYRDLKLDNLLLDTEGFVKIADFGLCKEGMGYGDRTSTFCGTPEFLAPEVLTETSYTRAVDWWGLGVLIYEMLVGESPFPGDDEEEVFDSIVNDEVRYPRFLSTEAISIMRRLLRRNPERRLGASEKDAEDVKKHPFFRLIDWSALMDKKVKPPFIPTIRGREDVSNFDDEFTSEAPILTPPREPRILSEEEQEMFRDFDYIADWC
# Chain of Mitogen-activated protein kinase 11 (Homo sapiens) (Q15759 whole entry, canonical isoform): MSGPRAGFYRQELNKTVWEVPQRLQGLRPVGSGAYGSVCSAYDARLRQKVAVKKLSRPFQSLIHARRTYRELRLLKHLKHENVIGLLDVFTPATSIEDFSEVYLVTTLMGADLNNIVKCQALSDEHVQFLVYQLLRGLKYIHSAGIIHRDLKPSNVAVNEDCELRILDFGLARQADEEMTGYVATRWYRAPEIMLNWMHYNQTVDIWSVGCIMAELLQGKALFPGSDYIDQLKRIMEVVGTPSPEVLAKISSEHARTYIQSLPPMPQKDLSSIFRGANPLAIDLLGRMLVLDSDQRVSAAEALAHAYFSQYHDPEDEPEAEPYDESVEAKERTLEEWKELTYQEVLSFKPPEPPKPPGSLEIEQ
# Chain of Serine/threonine-protein kinase Nek3 (Homo sapiens) (P51956 whole entry): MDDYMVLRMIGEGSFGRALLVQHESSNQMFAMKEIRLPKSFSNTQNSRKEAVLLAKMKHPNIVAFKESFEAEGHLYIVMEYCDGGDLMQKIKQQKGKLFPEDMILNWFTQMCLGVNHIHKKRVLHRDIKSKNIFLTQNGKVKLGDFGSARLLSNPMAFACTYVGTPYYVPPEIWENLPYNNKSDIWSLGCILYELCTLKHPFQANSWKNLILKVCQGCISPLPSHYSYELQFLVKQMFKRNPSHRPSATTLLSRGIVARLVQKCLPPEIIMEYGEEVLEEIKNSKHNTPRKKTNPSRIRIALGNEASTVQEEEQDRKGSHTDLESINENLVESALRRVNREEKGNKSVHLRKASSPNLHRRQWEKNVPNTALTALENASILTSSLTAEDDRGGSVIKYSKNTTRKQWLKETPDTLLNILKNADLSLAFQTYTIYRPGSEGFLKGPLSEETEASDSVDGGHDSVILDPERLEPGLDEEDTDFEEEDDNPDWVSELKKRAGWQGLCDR
# Chain of Cyclin-dependent kinase 18 (Homo sapiens) (Q07002 whole entry): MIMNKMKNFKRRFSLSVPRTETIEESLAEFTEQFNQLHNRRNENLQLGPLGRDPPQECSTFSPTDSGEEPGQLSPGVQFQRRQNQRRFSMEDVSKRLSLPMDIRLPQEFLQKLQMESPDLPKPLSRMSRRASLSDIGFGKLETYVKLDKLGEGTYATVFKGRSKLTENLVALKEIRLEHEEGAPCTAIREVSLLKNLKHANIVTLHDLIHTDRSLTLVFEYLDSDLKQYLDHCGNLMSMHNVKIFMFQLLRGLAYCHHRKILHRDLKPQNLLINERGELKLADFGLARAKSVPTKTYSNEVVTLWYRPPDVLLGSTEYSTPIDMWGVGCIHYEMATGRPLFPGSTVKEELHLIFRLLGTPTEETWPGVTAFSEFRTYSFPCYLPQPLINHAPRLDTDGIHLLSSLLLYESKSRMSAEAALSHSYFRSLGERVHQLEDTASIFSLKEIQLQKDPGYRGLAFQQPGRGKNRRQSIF
# Chain of Serine/threonine-protein kinase RIO2 (Homo sapiens) (Q9BVS4 whole entry, looked up): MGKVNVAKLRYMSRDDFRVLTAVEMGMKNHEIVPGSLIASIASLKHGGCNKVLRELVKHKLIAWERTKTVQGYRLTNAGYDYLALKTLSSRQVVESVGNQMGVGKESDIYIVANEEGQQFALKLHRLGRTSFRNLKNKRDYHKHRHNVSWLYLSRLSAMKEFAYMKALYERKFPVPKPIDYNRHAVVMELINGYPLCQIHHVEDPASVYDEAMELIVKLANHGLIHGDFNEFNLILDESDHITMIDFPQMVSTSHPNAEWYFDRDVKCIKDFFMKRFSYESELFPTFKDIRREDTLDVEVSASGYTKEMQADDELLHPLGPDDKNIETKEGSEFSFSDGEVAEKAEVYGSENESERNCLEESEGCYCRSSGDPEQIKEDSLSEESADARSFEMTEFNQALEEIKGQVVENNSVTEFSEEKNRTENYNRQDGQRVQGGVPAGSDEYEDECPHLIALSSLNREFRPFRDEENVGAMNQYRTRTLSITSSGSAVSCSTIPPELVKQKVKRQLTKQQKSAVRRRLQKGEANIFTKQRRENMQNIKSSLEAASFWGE
structure (smiles),measurement,setting,value
CCN1CCN(Cc2ccc(NC(=O)c3ccc(C)c(/C=C/c4cnc5[nH]ccc5c4OC)c3)cc2C(F)(F)F)CC1,percent of control,[1],0.3%
same,inhibition,[2],39%
same,residual activity,[3],3.6%
same,inhibition,[4],61%
CCN1CCN(Cc2ccc(NC(=O)c3ccc(C)c(Oc4ccnc5[nH]ccc45)c3)cc2C(F)(F)F)CC1,inhibition,[5],inactive
same,inhibition,[6],3.5%
same,inhibition,[7],inactive
same,inhibition,[8],-1.5%
same,inhibition,[9],1.8%
same,inhibition,[10],inactive
same,inhibition,[11],18.9%
same,inhibition,[12],25.2%
same,inhibition at 5 µM,[13],42.8%
CNc1cc(Oc2cc(C(=O)Nc3cc(N4CCN(C)CC4)cc(C(F)(F)F)c3)ccc2C)ncn1,inhibition,[14],9.3%
same,inhibition,[15],-8.4%
same,inhibition,[16],12.8%
same,inhibition,[17],14.5%
same,inhibition,[18],13.4%
